This note sets out measurements from patent US20260001928A1 (CORTERIA PHARMACEUTICALS, priority 2022, published 2026).

*1 amine or outer side, *2 acyl side, *3 side chain or, on linkers, in order; H or OH if unused. Where a SMILES comes first, the peptide text is derived from it. Side-chain parts run from the residue outwards. [ ]: non-standard residue; d: D form. The star is where a group is joined. C18 diacid = O=C(O)CCCCCCCCCCCCCCCCC(=O)*; C16 diacid = O=C(O)CCCCCCCCCCCCCCC(=O)*; γGlu = O=C(O)[C@H](CCC(=O)[*:2])N[*:1]; NMeI = CC[C@H](C)[C@H](NC)C(=O)O; Api = NC1(C(=O)O)CCNCC1; Nva = CCC[C@H](N)C(=O)O; Pentanoyl = CCCCC(=O)*; AEEA = NCCOCCOCC(=O)O; Aib = CC(C)(N)C(=O)O; Propionyl = CCC(=O)*

In one test the target is T1, CFR1R receptor (Homo sapiens, UniProt P34998).
T1 construct: host or cells: CHO-K1 (clone 2)
T1 sequence (P34998 24-415): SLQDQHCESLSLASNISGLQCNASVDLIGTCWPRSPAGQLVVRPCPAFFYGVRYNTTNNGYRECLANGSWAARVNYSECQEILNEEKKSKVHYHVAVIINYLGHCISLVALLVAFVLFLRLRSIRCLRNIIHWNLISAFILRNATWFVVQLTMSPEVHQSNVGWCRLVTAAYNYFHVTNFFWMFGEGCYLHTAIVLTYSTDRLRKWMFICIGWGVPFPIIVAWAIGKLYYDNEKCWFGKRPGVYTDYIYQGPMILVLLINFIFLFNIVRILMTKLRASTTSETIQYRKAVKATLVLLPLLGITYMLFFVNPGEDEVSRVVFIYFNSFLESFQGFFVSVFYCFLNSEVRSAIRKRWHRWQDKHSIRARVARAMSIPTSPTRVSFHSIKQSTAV
Kind of test: Activity at anti-target CFR1R receptor, cAMP assay in CRF1R-overexpression CHO-K1 cells. The format is cell-based. As to conditions: 100% = Sauvagine at 100 nM; for EC50: cAMP. The essentials:
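Signal is normalised to 100 nM Sauvagine, taken as 100% activation, in clone 2 cells plated at a final 4000 cells/well from frozen stocks.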

Another test has as its target T2, human CRF2a receptor (Homo sapiens, UniProt Q13324).
T2 construct: expressed in transfected cells; host or cells: TeloHEAC cells
T2 sequence (Q13324 1-411): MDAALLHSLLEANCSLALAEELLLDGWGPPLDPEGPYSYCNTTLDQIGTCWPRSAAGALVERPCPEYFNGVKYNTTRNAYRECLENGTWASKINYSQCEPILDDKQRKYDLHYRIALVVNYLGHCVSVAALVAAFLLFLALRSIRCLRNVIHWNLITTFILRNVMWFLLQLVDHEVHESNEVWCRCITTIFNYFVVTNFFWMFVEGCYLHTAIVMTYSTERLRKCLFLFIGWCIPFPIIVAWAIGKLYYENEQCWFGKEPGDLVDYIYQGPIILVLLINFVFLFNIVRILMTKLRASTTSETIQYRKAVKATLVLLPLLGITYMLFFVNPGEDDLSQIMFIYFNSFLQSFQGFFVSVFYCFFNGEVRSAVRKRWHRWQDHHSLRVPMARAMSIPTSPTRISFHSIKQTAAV
Kind of test: Activity at human CRF2a receptor, cAMP functional assay in TeloHEAC cells. Format: cell-based. As to conditions: TeloHEAC cells stably expressing human CRF2a receptor, relative to urocortin 2 (100 nM = 100%). A digest of the protocol:
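TeloHEAC cells stably expressing human CRF2a (10000 cells/well, suspended in HBSS/20 mM HEPES with 2 mM IBMX) were exposed to compounds for 30 min at 37 °C. cAMP was read as the 665/620 nm fluorescence ratio after 1 h at room temperature. EC50 was derived relative to 100 nM urocortin 2, set as 100%.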

With `CC[C@H](C)[C@H](NC)C(=O)N[C@H](C(=O)N[C@@H](CC(C)C)C(=O)N[C@@H](CO)C(=O)N[C@@H](CC(C)C)C(=O)N[C@@H](CC(=O)O)C(=O)N[C@@H](C(=O)N1CCC[C@H]1C(=O)N[C@H](C(=O)N[C@@H](CCCCN)C(=O)N[C@@H](CC(C)C)C(=O)N[C@@H](CCCCNC(=O)CC[C@H](NC(=O)CCCCCCCCCCCCCCC(=O)O)C(=O)O)C(=O)N[C@@H](CCCCN)C(=O)N[C@H](C(=O)N[C@@H](CC(C)C)C(=O)N[C@@H](CC(C)C)C(=O)N[C@@H](CCC(=O)O)C(=O)N[C@@H](CCC(N)=O)C(=O)N[C@@H](CCC(=O)O)C(=O)N[C@@H](CCCCN)C(=O)N[C@@H](CCC(N)=O)C(=O)N[C@@H](CCCCN)C(=O)N[C@@H](C)C(=O)N[C@@H](CCC(N)=O)C(=O)N[C@@H](CCCNC(=N)N)C(=O)N[C@@H](CCC(=O)O)C(=O)N[C@@H](CCC(N)=O)C(=O)N[C@@H](C)C(=O)N[C@@H](CCC(=O)O)C(=O)N[C@H](C(=O)N[C@@H](CC(N)=O)C(=O)NC1(C(=O)N[C@@H](CCC(N)=O)C(=O)N[C@H](C(=O)N[C@@H](CC(C)C)C(=O)N[C@@H](C)C(=O)N[C@@H](CCC(N)=O)C(=O)N[C@H](C(N)=O)C(C)C)[C@@H](C)CC)CCNCC1)[C@@H](C)O)[C@@H](C)CC)[C@@H](C)CC)C(C)C)C(C)C` [compound 154] (H-[NMeI]VLSLD[dV]PIKLK([γGlu-C16 diacid])KILLEQEKQKAQREQAETN[Api]QILAQV-NH2), on CFR1R receptor, the “Emax (% I)” value stood at 24 % I and the EC50 was over 250 nM. This compound also gave an EC50 on human CRF2a receptor of 0.52 nM.
Turning to `CC[C@H](C)[C@H](NC(C)=O)C(=O)N[C@H](C(=O)N[C@@H](CC(C)C)C(=O)N[C@@H](CO)C(=O)N[C@@H](CC(C)C)C(=O)N[C@@H](CC(=O)O)C(=O)N[C@@H](C(=O)N1CCC[C@H]1C(=O)N[C@H](C(=O)N[C@@H](CCCCN)C(=O)N[C@@H](CC(C)C)C(=O)N[C@@H](CCCCNC(=O)CC[C@H](NC(=O)CC[C@H](NC(=O)CCCCCCCCCCCCCCC(=O)O)C(=O)O)C(=O)O)C(=O)N[C@@H](CCCCN)C(=O)N[C@H](C(=O)N[C@@H](CC(C)C)C(=O)N[C@@H](CC(C)C)C(=O)N[C@@H](CCC(=O)O)C(=O)N[C@@H](CCC(N)=O)C(=O)N[C@@H](CCC(=O)O)C(=O)N[C@@H](CCCCN)C(=O)N[C@@H](CCC(N)=O)C(=O)N[C@@H](CCCCN)C(=O)N[C@@H](CCCCN)C(=O)N[C@@H](CCC(N)=O)C(=O)N[C@@H](CCCNC(=N)N)C(=O)N[C@@H](CCC(=O)O)C(=O)N[C@@H](CCC(N)=O)C(=O)N[C@@H](C)C(=O)N[C@@H](CCC(=O)O)C(=O)N[C@H](C(=O)N[C@@H](CC(N)=O)C(=O)NC(C)(C)C(=O)N[C@@H](CCC(N)=O)C(=O)N[C@H](C(=O)N[C@@H](CC(C)C)C(=O)N[C@@H](C)C(=O)N[C@@H](CCC(N)=O)C(=O)N[C@H](C(N)=O)C(C)C)[C@@H](C)CC)[C@@H](C)O)[C@@H](C)CC)[C@@H](C)CC)C(C)C)C(C)C` [compound 41] (Ac-IVLSLD[dV]PIKLK([γGlu-γGlu-C16 diacid])KILLEQEKQKKQREQAETN[Aib]QILAQV-NH2), the “Emax (% I)” value at CFR1R receptor came to 7 % I. The EC50 was over 250 nM on CFR1R receptor and 1.85 nM on human CRF2a receptor.
For `CCC[C@H](NC(=O)[C@H](CC(N)=O)NC(=O)[C@@H](NC(=O)[C@H](CCC(=O)O)NC(=O)[C@H](C)NC(=O)[C@H](CCC(N)=O)NC(=O)[C@H](CCC(=O)O)NC(=O)[C@H](CCCNC(=N)N)NC(=O)[C@H](CCC(N)=O)NC(=O)[C@H](CCCCN)NC(=O)[C@H](CCCCN)NC(=O)[C@H](CCC(N)=O)NC(=O)[C@H](CCCCN)NC(=O)[C@H](CCC(=O)O)NC(=O)[C@H](CCC(N)=O)NC(=O)[C@H](CCC(=O)O)NC(=O)[C@H](CC(C)C)NC(=O)[C@H](CC(C)C)NC(=O)[C@@H](NC(=O)[C@H](CCCCN)NC(=O)[C@H](CCCCNC(=O)COCCOCCNC(=O)COCCOCCNC(=O)CC[C@H](NC(=O)CCCCCCCCCCCCCCCCC(=O)O)C(=O)O)NC(=O)[C@H](CC(C)C)NC(=O)[C@H](CCCCN)NC(=O)[C@@H](NC(=O)[C@@H]1CCCN1C(=O)[C@H](NC(=O)[C@H](CC(=O)O)NC(=O)[C@H](CC(C)C)NC(=O)[C@H](CO)NC(=O)[C@H](CC(C)C)NC(=O)[C@@H](NC(=O)[C@@H](NC(C)=O)[C@@H](C)CC)C(C)C)C(C)C)[C@@H](C)CC)[C@@H](C)CC)[C@@H](C)O)C(=O)N[C@@H](CCC(N)=O)C(=O)N[C@H](C(=O)N[C@@H](CC(C)C)C(=O)N[C@@H](C)C(=O)N[C@@H](CCC(N)=O)C(=O)N[C@H](C(N)=O)C(C)C)[C@@H](C)CC` [compound 105] (Ac-IVLSLD[dV]PIKLK([AEEA-AEEA-γGlu-C18 diacid])KILLEQEKQKKQREQAETN[Nva]QILAQV-NH2), in that order: 10 % I, over 250 nM and 0.87 nM.
Turning to `CCCCC(=O)N[C@H](C(=O)N[C@@H](CC(C)C)C(=O)N[C@@H](CO)C(=O)N[C@@H](CC(C)C)C(=O)N[C@@H](CC(=O)O)C(=O)N[C@@H](C(=O)N1CCC[C@H]1C(=O)N[C@H](C(=O)N[C@@H](CCCCN)C(=O)N[C@@H](CC(C)C)C(=O)N[C@@H](CCCCNC(=O)COCCOCCNC(=O)COCCOCCNC(=O)CC[C@H](NC(=O)CCCCCCCCCCCCCCCCC(=O)O)C(=O)O)C(=O)N[C@@H](CCCCN)C(=O)N[C@H](C(=O)N[C@@H](CC(C)C)C(=O)N[C@@H](CC(C)C)C(=O)N[C@@H](CCC(=O)O)C(=O)N[C@@H](CCC(N)=O)C(=O)N[C@@H](CCC(=O)O)C(=O)N[C@@H](CCCCN)C(=O)N[C@@H](CCC(N)=O)C(=O)N[C@@H](CCCCN)C(=O)N[C@@H](CCCCN)C(=O)N[C@@H](CCC(N)=O)C(=O)N[C@@H](CCCNC(=N)N)C(=O)N[C@@H](CCC(=O)O)C(=O)N[C@@H](CCC(N)=O)C(=O)N[C@@H](C)C(=O)N[C@@H](CCC(=O)O)C(=O)N[C@H](C(=O)N[C@@H](CC(N)=O)C(=O)NC(C)(C)C(=O)N[C@@H](CCC(N)=O)C(=O)N[C@H](C(=O)N[C@@H](CC(C)C)C(=O)N[C@@H](C)C(=O)N[C@@H](CCC(N)=O)C(=O)N[C@H](C(N)=O)C(C)C)[C@@H](C)CC)[C@@H](C)O)[C@@H](C)CC)[C@@H](C)CC)C(C)C)C(C)C` [compound 120] (Pentanoyl-VLSLD[dV]PIKLK([AEEA-AEEA-γGlu-C18 diacid])KILLEQEKQKKQREQAETN[Aib]QILAQV-NH2), on CFR1R receptor, the “Emax (% I)” value was 3 % I and the EC50 was over 250 nM. On human CRF2a receptor, this compound came in with an EC50 of 1.33 nM.
On to `CCC(=O)N[C@H](C(=O)N[C@@H](CC(C)C)C(=O)N[C@@H](CO)C(=O)N[C@@H](CC(C)C)C(=O)N[C@@H](CC(=O)O)C(=O)N[C@@H](C(=O)N1CCC[C@H]1C(=O)N[C@H](C(=O)N[C@@H](CCCCN)C(=O)N[C@@H](CC(C)C)C(=O)N[C@@H](CCCCNC(=O)CC[C@H](NC(=O)CCCCCCCCCCCCCCC(=O)O)C(=O)O)C(=O)N[C@@H](CCC(N)=O)C(=O)N[C@H](C(=O)N[C@@H](CC(C)C)C(=O)N[C@@H](CC(C)C)C(=O)N[C@@H](CCCCN)C(=O)N[C@@H](CCC(N)=O)C(=O)N[C@@H](CCC(=O)O)C(=O)N[C@@H](CCCNC(=N)N)C(=O)N[C@@H](CCC(N)=O)C(=O)N[C@@H](CCCCN)C(=O)N[C@@H](CCCCN)C(=O)N[C@@H](CCC(N)=O)C(=O)N[C@@H](CCCNC(=N)N)C(=O)N[C@@H](CCC(=O)O)C(=O)N[C@@H](CCC(N)=O)C(=O)N[C@@H](C)C(=O)N[C@@H](CCC(=O)O)C(=O)N[C@@H](CCCCN)C(=O)N[C@@H](CC(N)=O)C(=O)N[C@@H](CCCCN)C(=O)N[C@@H](CCC(N)=O)C(=O)N[C@H](C(=O)N[C@@H](CC(C)C)C(=O)N[C@@H](CCC(=O)O)C(=O)N[C@@H](CCC(N)=O)C(=O)N[C@H](C(N)=O)C(C)C)[C@@H](C)CC)[C@@H](C)CC)[C@@H](C)CC)C(C)C)C(C)C` [compound 6] (Propionyl-VLSLD[dV]PIKLK([γGlu-C16 diacid])QILLKQERQKKQREQAEKNKQILEQV-NH2), for which the “Emax (% I)” value at CFR1R receptor came to 56 % I. At human CRF2a receptor, this compound showed an EC50 of 0.09 nM.
